# Measurements from patent publication US20240376122A1, “SMALL MOLECULE COMPOUNDS” (APERTOR PHARMACEUTICALS, INC., priority 2021, published 2024).
# Tests used:
# [1] = test system: Saccharomyces cerevisiae BY4742; experiment: Anti-yeast activity assay (minimum inhibitory concentration); assay type: cell-based; conditions: YPD media, 96-well plates, 30° C. for 16 hours without shaking, lowest concentration with no obvious culture growth, triplicate, read-out: MIC against Saccharomyces cerevisiae BY4742
# Experimental: A single colony of Saccharomyces cerevisiae BY4742 was inoculated into 2 mL YPD media in a 5 mL falcon tube to grow overnight at 30° C. The overnight culture was inoculated into 5 mL YPD media in a glass tube at OD600-0.1, and the new culture was grown at 30° C. until OD600 reached 0.5. The culture was then diluted to OD600-0.01 and aliquoted into 96-well plates at 100 μL per well. The compound was dissolved in ethanol at 75 μM. Three-fold serial dilutions were conducted for the Compound 10 times using ethanol, respectively. 4 μL of each concentration compound solution was added and mixed with 384 μL YPD media. 100 μL of the YPD media solutions were mixed with the Saccharomyces cerevisiae cultures in 96-well plates by pipette, respectively. The plates were incubated at 30° C. for 16 hours without shaking. The lowest Compound concentrations in wells that have no obvious culture growth were defined as the minimum inhibitory concentrations (MICs). The assays were conducted in triplicate.
# [2] = observed in humans; cited from earlier work
MIC [1],SMILES,terminal half-life [2]
< 0.0556 µM,"CO[C@@H]1/C(C)=C/C=C/C=C/[C@@H](C)C[C@@H](C)C(=O)[C@H](OC)[C@H](O)/C(C)=C/[C@@H](C)C(=O)C[C@@H]([C@H](C)C[C@@H]2CC[C@@H](O)[C@H](OC)C2)OC(=O)[C@@H]2CCCCN2C(=O)C(=O)[C@]2(O)O[C@@H](CC[C@H]2C)[C@H]1C (single isomer, unassigned) [Compound 15]",
,CO[C@H]1C[C@@H]2CC[C@@H](C)[C@@](O)(O2)C(=O)C(=O)N2CCCC[C@H]2C(=O)O[C@H]([C@H](C)C[C@@H]2CC[C@@H](O)[C@H](OC)C2)CC(=O)[C@H](C)/C=C(\C)[C@@H](O)[C@@H](OC)C(=O)[C@H](C)C[C@H](C)/C=C/C=C/C=C/1C [rapamycin],24 to 48 h
